Results from patent US20210284621A1 (priority 2018, published 2021).
Where two headings read alike, the source gives them in different places.

Assays:
CB1 receptor [1] = molecular target: T1, CB1 receptor (Homo sapiens, UniProt P21554); experiment: cell-based; set-up: host or cells: PathHunter cell lines
Description: (§1) The PathHunter® β-Arrestin assay monitors the activation of a GPCR in a homogenous, non-imaging assay format using a technology developed by DiscoverX called Enzyme Fragment Complementation (EFC) with β-galactosidase (3-Gal) as the functional reporter. […] EA is fused to β-Arrestin and PK is fused to the GPCR of interest.
(§2) PathHunter cell lines were expanded from freezer stocks according to standard procedures. Cells were seeded in a total volume of 20 μL into white walled, 384-well microplates and incubated at 37° C. for the appropriate time prior to testing. For agonist activity determination, cells were incubated with sample to induce response. Intermediate dilution of sample stocks was performed to generate 5× sample in assay buffer. 5 μL of 5× sample was added to cells and incubated at 37° C. or room temperature for 90 to 180 minutes. Vehicle concentration was 1%. Assay signal was generated through a single addition of 12.5 or 15 μL (50% v/v) of PathHunter Detection reagent cocktail, followed by a one hour incubation at room temperature. Microplates were read following signal generation with a PerkinElmer Envision™ instrument for chemiluminescent signal detection. Compound activity was analyzed using CBIS data analysis suite (ChemInnovation, CA). For agonist assays, percentage activity was calculated using the following formula: % Activity=100%×(mean RLU of test sample− mean RLU of vehicle control)/(mean MAX control ligand− mean RLU of vehicle control).

CB2 receptor [2] = molecular target: T2, CB2 receptor (Homo sapiens, UniProt P34972); experiment: cell-based; set-up: host or cells: cAMP Hunter cell lines
T2 sequence (P34972 whole entry): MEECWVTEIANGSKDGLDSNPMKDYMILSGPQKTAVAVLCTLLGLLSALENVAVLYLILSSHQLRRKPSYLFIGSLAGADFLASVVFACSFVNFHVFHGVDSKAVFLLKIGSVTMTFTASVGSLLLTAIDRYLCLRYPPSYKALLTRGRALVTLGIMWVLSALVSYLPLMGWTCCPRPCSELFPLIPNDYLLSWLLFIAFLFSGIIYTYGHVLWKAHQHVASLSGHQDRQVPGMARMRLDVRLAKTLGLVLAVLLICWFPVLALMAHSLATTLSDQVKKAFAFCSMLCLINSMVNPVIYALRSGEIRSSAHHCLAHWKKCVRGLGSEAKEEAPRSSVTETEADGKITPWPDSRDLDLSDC
Description: as §1, §2

CB1 receptor [3] = molecular target: T1, CB1 receptor; experiment: CB1 competitive radioligand binding assay ([3H] SR141716A); set-up: expressed in transfected cells; host or cells: Chem-1 cells; settings: for inhibition at 0.5 µM: 0.5 μM compound, 2.0 nM [3H] SR141716A, 90 min 37° C.
Description: (§3) J Med Chem. 41(26): 5177-5187 (1998); and Munro S., et al. Molecular characterization of a peripheral receptor for cannabinoids. Nature 365:61-65 (1993).
CB1 Radioligand Binding Assay: A compound of the invention (0.5 μM in 1% DMSO) was incubated with Chem-1 cells expressing human recombinant CB1 receptor in buffer (50 mM HEPES, pH 7.4, 5 mM MgCl2, 1 mM CaCl2, 0.2% BSA) for 90 minutes at 37° C. in the presence of 2.0 nM [H^3] SR141716A (CB1 radioligand). % Inhibition was determined as a function of radioligand binding to the CB1 receptor.

CB2 receptor [4] = molecular target: T2, CB2 receptor; experiment: CB2 competitive radioligand binding assay ([3H] WIN-55,212-2); set-up: expressed in transfected cells; host or cells: CHO-K1 cells; settings: for inhibition at 0.05 µM: 0.05 μM compound, 2.4 nM [3H] WIN-55,212-2, 90 min 37° C.; for Fold Selectivity (CB1/CB2): Table 3, ratio of Ki CB1/CB2
Description: as §3
CB2 Radioligand Binding Assay: A compound of the invention (0.05 μM in 1% DMSO) was incubated with CHO-K1 cells expressing human recombinant CB2 receptor in buffer (20 mM HEPES, pH 7.0, 0.5% BSA) for 90 minutes at 37° C. in the presence of 2.4 nM [H^3] WIN-55,212-2 (CB2 radioligand). % Inhibition was determined as a function of radioligand binding to the […].

[5] = PathHunter agonist mode, read-out: CB1 Activity (β-Arrestin)
[6] = PathHunter agonist mode, read-out: CB2 Activity (β-Arrestin)

T1 sequence (P21554 whole entry, the tested form may be a part): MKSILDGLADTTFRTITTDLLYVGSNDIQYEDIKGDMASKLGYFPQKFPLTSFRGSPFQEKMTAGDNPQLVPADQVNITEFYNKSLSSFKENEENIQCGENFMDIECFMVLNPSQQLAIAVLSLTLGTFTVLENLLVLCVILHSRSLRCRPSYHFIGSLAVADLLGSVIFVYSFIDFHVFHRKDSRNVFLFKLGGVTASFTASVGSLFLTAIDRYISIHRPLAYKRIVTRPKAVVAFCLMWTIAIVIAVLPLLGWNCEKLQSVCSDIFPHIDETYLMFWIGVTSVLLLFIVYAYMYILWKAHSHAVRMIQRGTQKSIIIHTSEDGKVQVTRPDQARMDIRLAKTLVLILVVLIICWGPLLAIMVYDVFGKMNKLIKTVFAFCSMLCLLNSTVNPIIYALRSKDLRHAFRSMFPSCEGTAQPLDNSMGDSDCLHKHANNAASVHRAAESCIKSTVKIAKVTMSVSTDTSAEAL

CCCCCCC(C)(C)C1=CC2=C(C(=O)C1=O)[C@@H]1CC(C(=O)O)=CC[C@H]1C(C)(C)O2 [Compound 30, (6aR,10aR)-6,6-dimethyl-3-(2-methyloctan-2-yl)-1,2-dioxo-2,6,6a,7,10,10a-hexahydro-1H-benzo[c]chromene-9-carboxylic acid]
EC50 (CB1 receptor [1]; [5]): > 3000 nM | EC50 (CB2 receptor [2]; [6]): > 3000 nM | inhibition at 0.5 µM (CB1 receptor [3]): 19% | inhibition at 0.05 µM (CB2 receptor [4]): -2%

CCCC(C)(C)c1cc(O)c2c(c1)OC(C)(C)[C@@H]1CC=C(C(=O)NC3CCCC3)C[C@@H]21 [Compound 97, (6aR,10aR)-N-cyclopentyl-1-hydroxy-6,6-dimethyl-3-(2-methylpentan-2-yl)-6a,7,10,10a-tetrahydro-6H-benzo[c]chromene-9-carboxamide]
EC50 (CB1 receptor [1]): > 3000 nM | EC50 (CB2 receptor [2]): 17.9 nM | Ki (CB1 receptor [3]): 780 nM | Ki (CB2 receptor [4]): 72 nM | Fold Selectivity (CB1/CB2) (CB2 receptor [4]): 10.8

CCCC(C)(C)c1cc(O)c2c(c1)OC(C)(C)[C@@H]1CC=C(C(=O)NC3(C(F)(F)F)CC3)C[C@@H]21 [Compound 102, (6aR,10aR)-1-hydroxy-6,6-dimethyl-3-(2-methylpentan-2-yl)-N-(1-(trifluoromethyl)cyclopropyl)-6a,7,10,10a-tetrahydro-6H-benzo[c]chromene-9-carboxamide]
EC50 (CB1 receptor [1]; [5]): > 3000 nM | EC50 (CB2 receptor [2]; [6]): 30.5 nM | Ki (CB1 receptor [3]): 860 nM | Ki (CB2 receptor [4]): 51 nM | Fold Selectivity (CB1/CB2) (CB2 receptor [4]): 16.9

CCCCCCC(C)(C)c1cc(O)c2c(c1)OC(C)(C)[C@@H]1CC=C(C(=O)NC3CNC3)C[C@@H]21 [Compound 103, (6aR,10aR)-N-(azetidin-3-yl)-1-hydroxy-6,6-dimethyl-3-(2-methyloctan-2-yl)-6a,7,10,10a-tetrahydro-6H-benzo[c]chromene-9-carboxamide]
EC50 (CB1 receptor [1]): 1710 nM | EC50 (CB2 receptor [2]; [6]): 9.5 nM | Ki (CB1 receptor [3]): 270 nM | Ki (CB2 receptor [4]): 51 nM | Fold Selectivity (CB1/CB2) (CB2 receptor [4]): 5.3

CCCCCCC(C)(C)c1cc(O)c2c(c1)OC(C)(C)[C@@H]1CC=C(C(=O)NC(C)(C)CC(=O)O)C[C@@H]21 [Compound 27, 3-((6aR,10aR)-1-Hydroxy-6,6-dimethyl-3-(2-methyloctan-2-yl)-6a,7,10,10a-tetrahydro-6H-benzo[c]chromene-9-carboxamido)-3-methylbutanoic acid]
EC50 (CB1 receptor [1]; [5]): > 3000 nM | EC50 (CB2 receptor [2]; [6]): > 3000 nM | inhibition at 0.5 µM (CB1 receptor [3]): 9% | inhibition at 0.05 µM (CB2 receptor [4]): 7%

CCCCCCC(C)(C)c1cc(O)c2c(c1)OC(C)(C)[C@@H]1CC=C(C(=O)NS(C)(=O)=O)C[C@@H]21 [Compound 108, (6aR,10aR)-1-hydroxy-6,6-dimethyl-3-(2-methyloctan-2-yl)-N-(methylsulfonyl)-6a,7,10,10a-tetrahydro-6H-benzo[c]chromene-9-carboxamide]
EC50 (CB1 receptor [1]): 1430 nM | EC50 (CB2 receptor [2]): 29.5 nM | Ki (CB1 receptor [3]): > 3000 nM | Ki (CB2 receptor [4]): 302 nM | Fold Selectivity (CB1/CB2) (CB2 receptor [4]): >9.9

CCCCCCC(C)(C)c1cc(O)c2c(c1)OC(C)(C)[C@@H]1CC=C(C(=O)NC3(C(F)(F)F)CCC3)C[C@@H]21 [Compound 96, (6aR,10aR)-1-hydroxy-6,6-dimethyl-3-(2-methyloctan-2-yl)-N-(1-(trifluoromethyl)cyclobutyl)-6a,7,10,10a-tetrahydro-6H-benzo[c]chromene-9-carboxamide]
EC50 (CB1 receptor [1]): 12.8 nM | EC50 (CB2 receptor [2]; [6]): 3 nM | Ki (CB1 receptor [3]): 25 nM | Ki (CB2 receptor [4]): 1.3 nM | Fold Selectivity (CB1/CB2) (CB2 receptor [4]): 19.2

CCCCCCC(C)(C)c1cc(O)c2c(c1)OC(C)(C)[C@@H]1CC=C(C(=O)NC3COC3)C[C@@H]21 [Compound 90, (6aR,10aR)-1-hydroxy-6,6-dimethyl-3-(2-methyloctan-2-yl)-N-(oxetan-3-yl)-6a,7,10,10a-tetrahydro-6H-benzo[c]chromene-9-carboxamide]
EC50 (CB1 receptor [1]): 128 nM | EC50 (CB2 receptor [2]; [6]): 2.7 nM | Ki (CB1 receptor [3]): 10 nM | Ki (CB2 receptor [4]): 2.5 nM | Fold Selectivity (CB1/CB2) (CB2 receptor [4]): 4.0

CCCCCCC(C)(C)c1cc(O)c2c(c1)OC(C)(C)[C@@H]1CC=C(C(=O)N3CCNCC3)C[C@@H]21 [Compound 104, ((6aR,10aR)-1-hydroxy-6,6-dimethyl-3-(2-methyloctan-2-yl)-6a,7,10,10a-tetrahydro-6H-benzo[c]chromen-9-yl)(piperazin-1-yl)methanone]
EC50 (CB1 receptor [1]): 4450 nM | EC50 (CB2 receptor [2]; [6]): 5 nM | Ki (CB1 receptor [3]): 260 nM | Ki (CB2 receptor [4]): 30 nM | Fold Selectivity (CB1/CB2) (CB2 receptor [4]): 8.7

CC(C)(CCCCCC(=O)O)c1cc(O)c2c(c1)OC(C)(C)[C@@H]1CC=C(C(=O)O)C[C@@H]21 [Compound 40]
EC50 (CB1 receptor [1]; [5]): > 10000 nM | EC50 (CB2 receptor [2]; [6]): > 1000 nM

CCCCCCC(C)(C)c1cc(O)c2c(c1)OC(C)(C)[C@@H]1CC=C(C(=O)N[C@H](Cc3ccc(O)cc3)C(=O)O)C[C@@H]21 [Compound 3]
EC50 (CB1 receptor [1]): > 3000 nM | EC50 (CB2 receptor [2]): > 3000 nM | inhibition at 0.5 µM (CB1 receptor [3]): 13% | inhibition at 0.05 µM (CB2 receptor [4]): 8%

CCCCCCC(C)(C)c1cc(O)c2c(c1)OC(C)(C)[C@@H]1CC=C(C(=O)N[C@H](C)C(=O)O)C[C@@H]21 [Compound 2, ((6aR,10aR)-1-Hydroxy-6,6-dimethyl-3-(2-methyloctan-2-yl)-6a,7,10,10a-tetrahydro-6H-benzo[c]chromene-9-carbonyl)-D-alanine]
EC50 (CB1 receptor [1]; [5]): > 3000 nM | EC50 (CB2 receptor [2]; [6]): > 3000 nM | inhibition at 0.5 µM (CB1 receptor [3]): 9% | inhibition at 0.05 µM (CB2 receptor [4]): 0%

CCCCCCC(C)(C)c1cc(O)c2c(c1)OC(C)(C)[C@@H]1CC=C(C(=O)NOC(C)(C)C)C[C@@H]21 [Compound 88, (6aR,10aR)-N-(tert-butoxy)-1-hydroxy-6,6-dimethyl-3-(2-methyloctan-2-yl)-6a,7,10,10a-tetrahydro-6H-benzo[c]chromene-9-carboxamide]
EC50 (CB1 receptor [1]): 5.9 nM | EC50 (CB2 receptor [2]; [6]): 1.7 nM | Ki (CB1 receptor [3]): 5.4 nM | Ki (CB2 receptor [4]): 1 nM | Fold Selectivity (CB1/CB2) (CB2 receptor [4]): 5.7

CCCCCCC(C)(C)c1cc(O)c2c(c1)OC(C)(C)[C@@H]1CC=C(C(=O)OCC(O)CO)C[C@@H]21 (stereo partly drawn) [Compound 22, 2,3-Dihydroxypropyl (6aR,10aR)-1-hydroxy-6,6-dimethyl-3-(2-methyloctan-2-yl)-6a,7,10,10a-tetrahydro-6H-benzo[c]chromene-9-carboxylate]
EC50 (CB1 receptor [1]): 42 nM | EC50 (CB2 receptor [2]; [6]): 4 nM | inhibition at 0.5 µM (CB1 receptor [3]): 107% | inhibition at 0.05 µM (CB2 receptor [4]): 92%

CCCCCCC(C)(C)c1cc(O)c2c(c1)OC(C)(C)[C@@H]1CC=C(C(=O)NOC)C[C@@H]21 [Compound 107]
EC50 (CB1 receptor [1]; [5]): 49.4 nM | EC50 (CB2 receptor [2]; [6]): 2.9 nM | Ki (CB1 receptor [3]): 36.2 nM | Ki (CB2 receptor [4]): 4.9 nM | Fold Selectivity (CB1/CB2) (CB2 receptor [4]): 7.4

CCCCCCC(C)(C)c1cc(O)c2c(c1)OC(C)(C)[C@H]1CC=C(C(=O)O)C[C@H]21 [Compound 20, (6aS,10aS)-1-Hydroxy-6,6-dimethyl-3-(2-methyloctan-2-yl)-6a,7,10,10a-tetrahydro-6H-benzo[c]chromene-9-carboxylic acid]
EC50 (CB1 receptor [1]): > 3000 nM | EC50 (CB2 receptor [2]): > 3000 nM | inhibition at 0.5 µM (CB1 receptor [3]): -10% | inhibition at 0.05 µM (CB2 receptor [4]): 9%

CCCCCCC(C)(C)c1cc(O)c2c(c1)OC(C)(C)[C@@H]1CC=C(C(=O)NCC(=O)O)C[C@@H]21 [Compound 1, ((6aR,10aR)-1-Hydroxy-6,6-dimethyl-3-(2-methyloctan-2-yl)-6a,7,10,10a-tetrahydro-6H-benzo[c]chromene-9-carbonyl)glycine]
EC50 (CB1 receptor [1]; [5]): > 3000 nM | EC50 (CB2 receptor [2]; [6]): 58 nM | inhibition at 0.5 µM (CB1 receptor [3]): 10% | Ki (CB1 receptor [3]; Table 2, read-out: CB1 Binding Ki): > 3000 nM | inhibition at 0.05 µM (CB2 receptor [4]): 4% | Ki (CB2 receptor [4]; Table 2, read-out: CB2 Binding Ki): 1310 nM

CCCCCCC(C)(C)c1cc(O)c2c(c1)OC(C)(C)[C@@H]1CC=C(C(=O)NCCC(=O)O)C[C@@H]21 [Compound 26, 3-((6aR,10aR)-1-Hydroxy-6,6-dimethyl-3-(2-methyloctan-2-yl)-6a,7,10,10a-tetrahydro-6H-benzo[c]chromene-9-carboxamido)propanoic acid]
EC50 (CB1 receptor [1]; [5]): > 3000 nM | EC50 (CB2 receptor [2]; [6]): > 3000 nM | inhibition at 0.5 µM (CB1 receptor [3]): 9% | inhibition at 0.05 µM (CB2 receptor [4]): 2%
